# Laboratory results: patent US7595056B1, “Methods of rejuvenating Leydig cells and enhancing testosterone production in a male subject” (University of Tennessee Research Foundation, priority 2002, dated 2009)
# Entries after “also recorded” stand apart in the source; their conditions may differ.
# Tests used:
# Leydig cells [1] = conditions: Leydig cells isolated from 60 days old rats, in vitro; cited from earlier work
# rat TSH (rat) = rat TSH (rat) (UniProt P11962); assay: RIA, rat LH kit (Amersham Pharmacia Biotech); cross-reactivity against rat LH as reference
# [2] = target: rat adenocorticotropic hormone (ACTH) (rat) (UniProt P01194); assay: as above
# [3] = target: rat follicle stimulating hormone (FSH) (rat) (UniProt P11962); assay: as above
# rat growth hormone (rat) = rat growth hormone (rat) (UniProt P01244); assay: as above
# rat prolactin (rat) = rat prolactin (rat) (UniProt P01237); assay: as above
# [4] = test system: testis of Brown Norway rats; assay: Microscopy and stereology of the testis of aged Brown Norway rats treated 4 weeks with LH, T4 or LH+T4; assay type: in vivo, Brown Norway rat
# From the text: (§1) Male Brown Norway rats aged 3, 6, 12 (n=8 per group; 3M, 6M, and 12M, respectively), and 18 months (M) (n=32; 18M) were purchased from Harlan (Madison, Wis., United States of America). The 18M rats were divided equally into four groups (n=8 per group). Under deep inhalation anesthesia (METOFANE™; Malincroft Veterinary, Inc., Mundelein, Ill., United States of America), the four groups of 18M rats were implanted subdermally with ALZET™ mini-osmotic pumps (model 2ML4; Alza Corporation, Palo Alto, Calif., United States of America), containing saline (control), LH (24 μg/day; National Hormone and Pituitary Program, Los Angeles, Calif., United States of America), thyroxine (T4; 5 μg/day; Sigma, St. Louis, Mo., United States of America), and LH and T4 (LH+T4; two pumps, 24 […] of T4), respectively, for 4 weeks (to 19 months [19M] of age). These doses of LH (Mendis-Handagama et al., (1998) Tissue Cell 30:64-73) and thyroid hormone (Ariyaratne et al., (2000) Biol. Reprod. 63:1115-1123) were used based on previously published studies. Rats were maintained under conditions of controlled temperature (25° C.) and lighting (14 hour/10 hour light/dark cycle) and were housed individually (one rat per cage). The animals were fed with Agway PROLAB™ rat formula (Agway, Syracuse, N.Y., United States of America) and water ad libitum until they were sacrificed. The animal protocol employed (No. 488) meets the guidelines of the National Institutes of Health and was approved by the University of Tennessee Animal Care and Concerns Committee.
# Pumps were filled with either saline, LH, or T4, and were primed in saline for 3 hours before implantation so that they would deliver their contents immediately on subdermal implantation into the interscapular region. The LH+T4 rats received two pumps each, one containing LH and one containing T4; the other rats received one pump containing either saline, LH, or T4. After 4 weeks of treatment, rats were sacrificed. In addition, implanted pumps were removed and examined to verify that they had delivered their contents as expected.
# One testis of each rat in the 3M, 6M, 12M, and 19M age groups was removed, cleaned of fat, and weighed on a Mettler H54 balance to obtain the fresh testis weight. Using the flotation technique (Mendis-Handagama et al., (1988) Am. J. Anat. 181:12-22; Mori & Christensen, (1980) J. Cell. Biol. 84:340-354; and Mendis-Handagama & Ewing, (1990) J. Microsc. (Oxf) 159:73-82), the specific gravity of the fresh testis was determined as described previously (Mori & Christensen, (1980) J. Cell. Biol. 84:340-354 and Mendis-Handagama & Ewing, (1990) J. Microsc. (Oxford) 159:73-82), and the fresh testis volume was calculated by dividing the fresh testis weight by the specific gravity (in metric units, specific gravity equals density). This measurement is required to express Leydig cell numbers per testis, because numerical density is obtained as a number per unit volume of the testis. The testis was then decapsulated, and the entire testis was incubated for 3 hours in the same medium as described previously (Ariyaratne et al., (2000) Biol. Reprod. 63:1115-1123; Mendis-Handagama et al., (1998) Biol. Reprod. 59:351-357; Mendis-Handagama et al., (1990) J. Androl. 11:548-554; Ariyaratne et al., (2000) Biol. Reprod. 63:493-502; and Ariyaratne & Mendis-Handagama, (2000) Biol. Reprod. 62:158-168) to determine the LH-stimulated testosterone-secretory capacity per testis in vitro. Testosterone levels in the incubation medium were measured by RIA using commercially available kits (COAT-A-COUNT™), and the details of the assay are given above (see Laboratory Example 4). Testosterone-secretory capacity per Leydig cell was calculated by dividing the testosterone-secretory capacity per testis by the number of Leydig cells per testis. […]
# Leydig cells [5] = assay: LH-stimulated testicular steroidogenesis in vitro (testis of treated rats incubated 3 hours, testosterone by RIA); assay type: in vivo, Brown Norway rat
# From the text: Male Brown Norway rats aged 3, 6, 12 (n=8 per group; 3M, 6M, and 12M, respectively), and 18 months (M) (n=32; 18M) were purchased from Harlan (Madison, Wis., United States of America). The 18M rats were divided equally into four groups (n=8 per group). Under deep inhalation anesthesia (METOFANE™; Malincroft Veterinary, Inc., Mundelein, Ill., United States of America), the four groups of 18M rats were implanted subdermally with ALZET™ mini-osmotic pumps (model 2ML4; Alza Corporation, Palo Alto, Calif., United States of America), containing saline (control), LH (24 μg/day; National Hormone and Pituitary Program, Los Angeles, Calif., United States of America), thyroxine (T4; 5 μg/day; Sigma, St. Louis, Mo., United States of America), and LH and T4 (LH+T4; two pumps, 24 […] of T4), respectively, for 4 weeks (to 19 months [19M] of age). […]
# One testis of each rat in the 3M, 6M, 12M, and 19M age groups was removed, cleaned of fat, and weighed on a Mettler H54 balance to obtain the fresh testis weight. Using the flotation technique (Mendis-Handagama et al., (1988) Am. J. Anat. 181:12-22; Mori & Christensen, (1980) J. Cell. Biol. 84:340-354; and Mendis-Handagama & Ewing, (1990) J. Microsc. (Oxf) 159:73-82), the specific gravity of the fresh testis was determined as described previously (Mori & Christensen, (1980) J. Cell. Biol. 84:340-354 and Mendis-Handagama & Ewing, (1990) J. Microsc. (Oxford) 159:73-82), and the fresh testis volume was calculated by dividing the fresh testis weight by the specific gravity (in metric units, specific gravity equals density). […] Testosterone levels in the incubation medium were measured by RIA using commercially available kits (COAT-A-COUNT™), and the details of the assay are given above (see Laboratory Example 4). Testosterone-secretory capacity per Leydig cell was calculated by dividing the testosterone-secretory capacity per testis by the number of Leydig cells per testis. […]
# [6] = RIA for serum LH, T4, triiodothyronine and testosterone of treated rats; assay type: in vivo, Brown Norway rat
# From the text: as §1, with “Committee. […]” for “Committee.”
# Serum LH hormone was quantified using a commercially available rat luteinizing hormone (rLH) kit (Amersham Pharmacia Biotech, Piscataway, N.J., United States of America). […]
# The PC SAS software (SAS Institute Inc., Cary, N.C., United States of America) was used to analyze the data. Results are expressed as mean± standard error of the mean (SEM). […]
# [7] = 19M Brown Norway rats after 4 weeks subdermal osmotic pump (LH 24 μg/day, T4 5 μg/day), mean, n=8
# UniProt P01194, sequence (P01194 124-162 limits assumed): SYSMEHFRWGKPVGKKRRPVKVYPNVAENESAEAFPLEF
# UniProt P01237, sequence (P01237 30-226 limits assumed): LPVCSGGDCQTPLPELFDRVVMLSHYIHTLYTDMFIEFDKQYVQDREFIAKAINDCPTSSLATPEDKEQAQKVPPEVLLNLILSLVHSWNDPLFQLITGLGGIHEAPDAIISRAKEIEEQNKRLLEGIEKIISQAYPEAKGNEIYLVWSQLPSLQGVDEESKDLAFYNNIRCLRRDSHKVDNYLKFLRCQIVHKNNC
# UniProt P01244, sequence (P01244 27-216 limits assumed): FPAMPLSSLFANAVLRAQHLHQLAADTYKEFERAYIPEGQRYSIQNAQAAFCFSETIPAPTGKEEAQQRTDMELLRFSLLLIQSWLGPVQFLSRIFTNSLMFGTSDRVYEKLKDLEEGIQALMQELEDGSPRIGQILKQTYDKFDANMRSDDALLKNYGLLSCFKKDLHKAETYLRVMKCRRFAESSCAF
compound,measurement,setting,value
"N[C@@H](Cc1cc(I)c(Oc2ccc(O)c(I)c2)c(I)c1)C(=O)O [T3, L-3,5,3′-triiodothyronine]",Effect on testosterone secretion of Leydig cells,Leydig cells [1],increased testosterone secretion of Leydig cells in a dose dependent fashion up to 50 ng
same,Minimum effective dose for testosterone production,Leydig cells [1],25 ng
antibody for LH of the commercially available rat luteinizing hormone (rLH) RIA kit (Amersham Pharmacia Biotech),cross-reactivity,rat TSH (rat),0.66%
same,cross-reactivity,[2],< 0.00092%
same,cross-reactivity,[3],< 0.016%
same,cross-reactivity,rat growth hormone (rat),0.1%
same,cross-reactivity,rat prolactin (rat),< 0.8%
"N[C@@H](Cc1cc(I)c(Oc2cc(I)c(O)c(I)c2)c(I)c1)C(=O)O [T4, L-3,5,3′,5′-tetraiodothyronine]",Average volume of a Leydig cell,[4]; [7],1998 μm^3
same,Leydig cell number per Testis,[4]; [7],21.80 10^6
same,Volume density of Leydig cells,[4]; [7],2.38%
same,"Absolute volume of Leydig cells per testis, comparison between groups in words","[4]; 19M treated rats versus 19M control and younger rats, P<0.05",higher values compared to 19M control rats; also recorded: not significantly different from those of 12M rats
same,"Average volume of a Leydig cell, comparison between groups in words","[4]; 19M treated rats versus younger rats, P<0.05",significantly lower than those in 3M and 6M rats; also recorded: partially effective
same,Size of Leydig cell profiles in tissue sections,"[4]; light microscopy, 19M treated rats versus 19M control rats",much larger than those in 19M control rats
same,Mean Absolute Volume of Leydig cells,"[4]; per testis, 19M Brown Norway rats after 4 weeks subdermal osmotic pump (LH 24 μg/day, T4 5 μg/day), mean, n=8",43.57 mm^3
same,"LH-stimulated testosterone-secretory capacity per testis and per Leydig cell in vitro, comparison between groups in words",Leydig cells [5]; 19M treated rats versus younger rats,comparable to those in 12M rats
same,Mean Testosterone-Secretory Capacity Per testis,"Leydig cells [5]; LH-stimulated, in vitro, 3 hours incubation, testis of 19M rats treated 4 weeks (LH 24 μg/day, T4 5 μg/day), mean, n=8","14,748 ng"
same,Mean Testosterone-Secretory Capacity Per Leydig cell,"Leydig cells [5]; LH-stimulated, in vitro, capacity per testis divided by number of Leydig cells per testis, 19M rats treated 4 weeks",0.67 pg
same,Mean Serum Testosterone,[6]; [7],73 ng/dL
same,"Serum LH levels, comparison between groups in words",[6]; 19M treated rats versus 3M through 12M rats,reduced significantly
same,"Serum testosterone levels, comparison between groups in words","[6]; 19M treated rats versus 19M controls and younger rats, P<0.05",significantly greater than 19M controls; also recorded: significantly lower than those in 3M through 12M rats; also recorded: not sufficient to upgrade the serum testosterone levels in 19M rats to those of 3M and 6M rats
